Experimental data: ChEMBL document CHEMBL1133248, “Synthesis and biological activity of phenoxyphenyl oxamic acid derivatives related to L-thyronine” (Bioorg Med Chem Lett, 2000)
pIC50: −log10 of the molar value.

Legend:
[1] = Inhibition of [125I]L-T3 binding to rat hepatic 3,5,3''-triiodo-L-thyronine receptor
Rattus norvegicus [2] = test: Heart rate was determined after administration to rats at 25 mg/kg perorally for 7 days (in vivo on cardiovascular activity)
Rattus norvegicus [3] = test: Atrial tension was determined after administration to rats at 25 mg/kg for 7 days at 20 pulse/min
Rattus norvegicus [4] = test: Atrial tension was determined after administration to rats at 25 mg/kg for 7 days at 40 pulse/min
Rattus norvegicus [5] = test: Heart weight was determined after administration to rats at 25 mg/kg perorally for 7 days (in vivo on cardiovascular activity)
Rattus norvegicus [6] = test: Heart rate was determined after administration to rats at 100 ug/Kg perorally for 7 days (in vivo on cardiovascular activity); assay type: functional
Rattus norvegicus [7] = test: Atrial tension was determined after administration to rats at 100 ug/Kg for 7 days at 20 pulse/min; assay type: functional, Cardiac atrium
Rattus norvegicus [8] = test: Atrial tension was determined after administration to rats at 100 ug/Kg for 7 days at 40 pulse/min; assay type: functional, Cardiac atrium
Rattus norvegicus [9] = test: Heart weight was determined after administration to rats at 100 ug/Kg perorally for 7 days (in vivo on cardiovascular activity); assay type: functional

| pIC50 [1] | Compound | further results |
| --- | --- | --- |
| 7.49 | Cc1cc(NC(=O)C(=O)O)cc(C)c1Oc1cccc(-c2ccccc2)c1 | – |
| 9.19 | Cc1cc(NC(=O)C(=O)O)cc(C)c1Oc1ccc(O)c(-c2cccc(Cl)c2)c1 | – |
| 9.77 | Cc1cc(NC(=O)C(=O)O)cc(C)c1Oc1ccc(O)c(-c2ccccc2Cl)c1 | – |
| 8.72 | Cc1cc(NC(=O)C(=O)O)cc(C)c1Oc1ccc(O)c(-c2ccccc2)c1 | Developed tension (Rattus norvegicus [3]): 3.7% |
| 9.04 | Cc1cc(NC(=O)C(=O)O)cc(C)c1Oc1ccc(O)c(-c2cccc(C(F)(F)F)c2)c1 | – |
| 8.72 | Cc1cc(NC(=O)C(=O)O)cc(C)c1Oc1ccc(O)c(-c2cccc(F)c2)c1 | – |
| 8.05 | Cc1ccc(-c2cc(Oc3c(C)cc(NC(=O)C(=O)O)cc3C)ccc2O)cc1 | – |

The remaining lines, values behind:

| Compound | pIC50 [1] | further results |
| --- | --- | --- |
| CCc1cc(Oc2c(C)cc(NC(=O)C(=O)O)cc2C)ccc1O | 9.60 | – |
| Cc1cc(NC(=O)C(=O)O)cc(C)c1Oc1ccc(O)c(C2CCCCC2)c1 | 8.66 | Heart rate (Rattus norvegicus [2]): 6.3; Developed tension (Rattus norvegicus [3]): 7.6%; Developed tension (Rattus norvegicus [4]): 12.6%; Heart weight (Rattus norvegicus [5]): 4.4 |
| Cc1cc(Oc2c(C)cc(NC(=O)C(=O)O)cc2C)ccc1O | 8.27 | – |
| Cc1cc(NC(=O)C(=O)O)cc(C)c1S(=O)(=O)c1ccc(O)c(C2CCCCC2)c1 | 8.72 | – |
| Cc1cc(NC(=O)C(=O)O)cc(C)c1Sc1ccc(O)c(C2CCCCC2)c1 | 8.70 | – |
| Cc1cc(NC(=O)C(=O)O)cc(C)c1Oc1ccc(O)c(-c2ccc(C(F)(F)F)cc2)c1 | 7.85 | – |
| N[C@@H](Cc1cc(I)c(Oc2ccc(O)c(I)c2)c(I)c1)C(=O)O [LIOTHYRONINE] | – | Heart rate (Rattus norvegicus [6]): 52.5; Developed tension (Rattus norvegicus [7]): 18.2%; Developed tension (Rattus norvegicus [8]): 12.7%; Heart weight (Rattus norvegicus [9]): 38.9 |
